Holding throughout (type): physicochemical
Data set [1] in a line: Ionization constants (pKa). Particulars: multiple ionization constants; read-out: weak base pKa values.
The nature of data set [2]: physchem.
Data set [3] in a line: Chemical stability in aqueous solutions as a function of pH and temperature. Particulars: for degradation in aqueous solution: about 20 weeks. The procedure: (FIG. 88(a)), or about 40° C. (FIG. 88(b)) over a period of about 20 weeks.
Data set [4] can be described thus: Susceptibility to oxidation in solution as a function of pH. Particulars: about 40° C., about 14 days. An excerpt:
In the presence of iron (II) ions, formation of a complex with iron is observed at high pH (FIG. 90). This complex can be reversed to yield Compound I by addition of a strong acid.

Where [5] appears, read: increased degradation at higher pH.

Converted amounts (≈) assume the structure as drawn. Where only a bound is given, the exact number is not on record here.

Experimental findings from patent publication US20180141939A1, “SOLID FORMS OF A BET INHIBITOR” (Gilead Sciences, Inc., priority 2016, published 2018) are described below.

What is called pKa is the pH at which an ionisable group is half protonated. For orientation: solubility means the concentration that dissolves in the medium under given conditions. For the molecule `Cc1noc(C)c1-c1cc(C(O)(c2ccccn2)c2ccccn2)c2nc(C3CC3)[nH]c2c1` [Compound I, (2-cyclopropyl-6-(3,5-dimethylisoxazol-4-yl)-1H-benzo[d]imidazol-4-yl)di(pyridin-2-yl)methanol], the pKa in data set [1] was 2.9. Moreover, the solubility in data set [2] (pH 2.4, aqueous buffer) was more than 100000 µg/mL; in data set [2] (pH 8, aqueous buffer), 9.2 µg/mL (≈ 21 µM). Besides, the “degradation in aqueous solution” value in data set [3] (about pH 1 to about pH 11, about 25° C.) was “no significant degradation”; in data set [3] (about pH 1 to about pH 11, about 40° C.), “no significant degradation”; in data set [3] (about pH 1 to about pH 11, about 60° C., exception pH 5 (small amount of aluminum complex)), “no significant degradation”. Also, the “susceptibility to acid- or base-catalyzed degradation” value in data set [3] (aqueous solutions as a function of pH and temperature) was “not susceptible to acid- or base-catalyzed degradation”. The “degradation in solution containing polysorbate 80” value in data set [4] is reported as “No significant degradation”. Also, the “degradation in solution containing radical initiator” value in data set [4] is “No significant degradation”. Further, the “degradation in solution containing hydrogen peroxide” value in data set [4] (setting [5]) was “loss of Compound I”. The “degradation in solution containing iron (II) ions” value in data set [4] (setting [5]) is “loss of Compound I”.
